US20240173311A1, “METHODS AND COMPOSITIONS FOR MODULATING FGF ACTIVITY” (Recovery Therapeutics, Inc., priority 2021, published 2024)

Tests used:
[1] = target: T1, FGFR1 in recombinant human FGFR1/FGF2 complex (Homo sapiens, UniProt P11362); test: Thermal shift assay (TSA), ΔTm of FGFR1 peak; type: binding
T1 construct: made in house; host or cells: Escherichia coli BL21 (DE3) Star
Description: (§1) TSA was utilized to biophysically characterize the recombinant human FGFR1/FGF2 complex in the presence or absence of selected compounds of formula (I), Compounds 1, 2a-2f, 20, 5, 60, and 8-13. Compound 1 was prepared according to the procedures described in Example 1, and the other compounds were obtained from commercial sources. The assay functions by protein denaturation over a temperature gradient. During protein unfolding, exposed hydrophobic regions bind a dye and fluoresce due to solvent relaxation effects. Changes in the melting temperature of the protein complex in the presence of each compound were monitored and compounds were screened/ranked using this method.
(§2) Thawed aliquots of purified FGF2 (1.0 mg/mL) and FGFR1 (1.6 mg/mL) proteins were mixed in a 1:1 molar ratio ([…]) on ice for 30 min at 4° C. and plated prior to the thermal shift assay (TSA).
(§3) Complex formation was verified by loading the complexed material on a size exclusion column (superdex 10 300GL S200) and observing the monodisperse peak corresponding to the FGF2/FGFR1 complex (˜ 40 kDa). Compounds described herein were screened in dose response format (0-100 μM) with the FGF2/FGFR1 complex in triplicates. FGF2/ FGFR1/compound complexes were mixed in a 1000:1 ratio with Sypro Orange dye (Sigma-Aldrich). The samples were processed using a Bio-Rad CFX C96 Touch quantitative polymerase chain reaction and run using the FRET assay settings with a heating ramp of 0.3° C./s cycling from 4 to 100° C. Data analysis was performed using the Bio-Rad CFX Manager Software (version 3.1, Bio-Rad) and changes in the melting temperature (Tm) of the complex in the presence of each compound were monitored. The results are shown in Table 9 below and also in FIG. 1 (for Compound 10).

[2] = target: T2, FGF2 in recombinant human FGFR1/FGF2 complex (Homo sapiens, UniProt P09038); test: Thermal shift assay (TSA), ΔTm of FGF2 peak; type: binding
T2 construct: made in house; host or cells: Escherichia coli BL21 (DE3) Star
Description: as §1, §2, §3

[3] = system: rodent model of stroke recovery (MCAO); test: Stroke recovery in vivo after middle cerebral artery occlusion (MCAO); settings: rat MCAO, 10 mg/kg i.v. on Day 1, 2, 3 after MCAO
Description: Compound 10 was tested for its effectiveness in a rodent model of stroke recovery. Twenty male Sprague Dawley Rats (Charles River Laboratories) each weighing 300-400 g were used in this experiment. First, anesthesia was induced in an induction chamber with 2-3% isoflurane in N2O:O2 (2:1) and maintained with 1-1.5% isoflurane via face mask. Adequate depth of anesthesia was assessed by lack of withdrawal to hindlimb pinch and loss of eyeblink reflex. Once anesthetized, animals received cefazolin sodium (40 mg/kg, i.p.) and buprenorphine SR (0.9-1 mg/kg, s.c.). Cefazolin was used as a prophylactic antibiotic. A veterinary ophthalmic ointment (Sodium Chloride hypertonicity ophthalmic ointment (Muro 128 Sterile Ophthalmic 5% Ointment)) was applied to the eyes. […]
Behavioral evaluations of sensorimotor function were done by investigators blinded to treatment assignment. […] For the forelimb-placing test, the examiner held the rat close to a tabletop and scored the rat's ability to place the forelimb on the tabletop in response to whisker, visual, tactile, or proprioceptive stimulation. Similarly, for the hindlimb placing test, the examiner assessed the rat's ability to place the hindlimb on the tabletop in response to tactile and proprioceptive stimulation. […]

HAP1 cells = test: Cell survival (XTT) of HAP1 cells in the absence of virus; type: cell-based; settings: compound 0.002-1 μM, FGF-2 1 ng/ml
Description: (§4) Compound 10 was evaluated for its ability to reduce human coronavirus 229E induced cellular toxicity in HAP1 cells with and without the addition of a low concentration of FGF-2. HAP1 cells were seeded at a density of 1×10^4 cells/well in a volume of 100 μL in DMEM supplemented with 10% FBS. Following a 24-hour incubation at 37° C./5% CO2 the cells were pre-incubated with and without (media only) exogenous FGF-2 (1 ng/ml) and Compound 10 (0.002 μM, 0.008 μM, 0.04 μM, 0.2 μM, or 1 μM; plated in triplicate) for 24 hours prior (D-1) to the addition of human coronavirus 229E at a pre-determined titer. On the day of viral infection (D0), and one and two days thereafter (D1 and D2), freshly prepared FGF-2 and Compound 10 were added. The cultures were incubated for 4 days at 37° C./5% CO2, after which the cells were stained for cell survival with the tetrazolium dye XTT.

human coronavirus 229E = test: Anti-coronavirus activity, cell survival (XTT) of infected HAP1 cells; type: cell-based; settings: in combination with FGF-2 (1 ng/ml), compound 0.002-1 μM, 4 days incubation, FIG. 7
Description: FIG. 7 is a graph showing the cell survival of HAP1 cells infected with human coronavirus 229E following a 4-day incubation period in the presence of Compound 1o. Compound 1o (0.002 μM, 0.008 μM, 0.04 μM, 0.2 μM, or 1 uM) and FGF-2 (1 ng/mL) were added on Day -1, Day 0, Day 1, and Day 2 of infection by human coronavirus 229E.
as §4

[4] = target: T3, purified FGF-2/FGFR1 complex (Homo sapiens, UniProt P09038+P11362); test: Thermal stability assay (TSA) melting curve of the complex (FIG. 1); type: binding; settings: 25 μM compound, versus complex alone
T3 construct: made in house; host or cells: Escherichia coli BL21 (DE3) Star
Description: FIG. 1 is a graph showing the thermal stability assay (TSA) data of purified FGF-2.FGFR1 complex with and without the addition of Compound 1o (dotted line: without Compound 1o; solid line: 25 μM Compound 1o).
TSA was utilized to biophysically characterize the recombinant human FGFR1/FGF2 complex in the presence or absence of selected compounds of formula (I), Compounds 1, 2a-2f, 20, 5, 60, and 8-13. Compound 1 was prepared according to the procedures described in Example 1, and the other compounds were obtained from commercial sources. The assay functions by protein denaturation over a temperature gradient. […] Changes in the melting temperature of the protein complex in the presence of each compound were monitored and compounds were screened/ranked using this method.
as §3, with “Compounds described herein were screened in dose response format (0-100 μM) with the FGF2/FGFR1 complex in triplicates. FGF2/ FGFR1/compound complexes were mixed in a 1000:1 ratio with Sypro Orange dye (Sigma-Aldrich).” left out, “The results are shown in Table 9 below and also in FIG. 1 (for Compound 10).” left out

FGFR1 = FGFR1 (Homo sapiens, UniProt P11362); test: Phosphorylation of FGFR1 in a cell-based system; settings: cells expressing FGFR1, increasing concentrations, submaximal concentration of FGF-2, FIG. 2
Description: FIG. 2 is a graph showing the phosphorylation of FGFR1 in the presence of increasing concentrations of Compound 1o in a cell-based system.
Cells expressing FGFR1 were exposed to increasing concentrations of Compound 10 in the presence of a submaximal concentration of FGF-2. Cells were then lysed, and the relative phosphorylation of FGFR1 was assessed using antibodies to non-phosphorylated and phosphorylated FGFR1. The results are shown in FIG. 2, which is a graph showing the phosphorylation of FGFR1 in the presence of increasing concentrations of Compound 10.

T1 sequence (P11362 142-365 limits assumed): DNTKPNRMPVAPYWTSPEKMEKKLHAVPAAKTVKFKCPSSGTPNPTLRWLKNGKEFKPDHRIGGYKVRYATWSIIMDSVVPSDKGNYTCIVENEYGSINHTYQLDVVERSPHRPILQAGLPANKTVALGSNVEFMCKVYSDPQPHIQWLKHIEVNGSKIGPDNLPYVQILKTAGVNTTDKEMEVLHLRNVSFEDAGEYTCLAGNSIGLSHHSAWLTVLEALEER
T1 sequence (P09038 156-288 partner limits assumed): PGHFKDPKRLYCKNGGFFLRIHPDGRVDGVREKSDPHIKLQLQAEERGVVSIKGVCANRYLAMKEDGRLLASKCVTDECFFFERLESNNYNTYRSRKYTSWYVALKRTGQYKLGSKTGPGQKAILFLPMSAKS
T2 sequence (P09038 156-288 limits assumed): as the sequence (P09038 156-288 partner limits assumed) above
T2 sequence (P11362 142-365 partner limits assumed): as the sequence (P11362 142-365 limits assumed) above
T3 sequence (P11362 142-365 limits assumed): as above
T3 sequence (P09038 156-288 limits assumed): as the sequence (P09038 156-288 partner limits assumed) above
Sequence of FGFR1 (P11362 22-822, species assumed): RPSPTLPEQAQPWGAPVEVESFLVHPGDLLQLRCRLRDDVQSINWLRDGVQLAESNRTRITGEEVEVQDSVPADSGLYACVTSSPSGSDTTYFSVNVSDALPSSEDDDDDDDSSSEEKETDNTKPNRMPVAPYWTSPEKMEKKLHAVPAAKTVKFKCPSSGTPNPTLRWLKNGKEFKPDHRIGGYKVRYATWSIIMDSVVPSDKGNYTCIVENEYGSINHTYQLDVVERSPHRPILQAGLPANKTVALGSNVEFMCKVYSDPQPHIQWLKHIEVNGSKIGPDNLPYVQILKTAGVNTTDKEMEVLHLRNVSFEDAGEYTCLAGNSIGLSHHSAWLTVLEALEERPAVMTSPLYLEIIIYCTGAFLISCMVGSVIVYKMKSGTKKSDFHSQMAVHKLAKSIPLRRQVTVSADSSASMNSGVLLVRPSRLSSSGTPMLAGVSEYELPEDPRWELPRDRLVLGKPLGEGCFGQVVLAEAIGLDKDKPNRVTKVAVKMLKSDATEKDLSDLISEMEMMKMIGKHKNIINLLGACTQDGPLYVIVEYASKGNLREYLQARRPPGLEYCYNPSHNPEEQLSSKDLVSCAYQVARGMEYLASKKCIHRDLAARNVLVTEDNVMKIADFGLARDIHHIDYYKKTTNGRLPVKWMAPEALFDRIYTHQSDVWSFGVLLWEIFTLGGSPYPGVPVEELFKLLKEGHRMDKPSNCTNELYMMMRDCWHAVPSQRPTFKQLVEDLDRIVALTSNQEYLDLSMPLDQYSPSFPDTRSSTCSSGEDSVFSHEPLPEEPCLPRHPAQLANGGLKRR
Sequence of FGFR1 (P09038 143-288 partner, species assumed): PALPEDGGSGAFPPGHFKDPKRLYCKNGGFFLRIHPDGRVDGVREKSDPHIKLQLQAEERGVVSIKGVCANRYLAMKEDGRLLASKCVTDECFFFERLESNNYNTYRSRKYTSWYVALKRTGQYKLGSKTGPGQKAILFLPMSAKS

CCN(CC)c1ccc(/C=N/c2ccc(C(F)(F)F)cc2)cc1 [Compound 4oy, (E)-N, N-diethyl-4-(((4-(trifluoromethyl)phenyl)imino)methyl)aniline]
ΔTm at 50 µM ([1]; 50 μM compound): 7.8 °C | ΔTm at 50 µM ([2]; 50 μM compound): -4.5 °C | melting point: 129.3 to 129.6 °C

CCN(CC)c1ccc(C=O)cc1 [Compound 10, 4-diethylaminobenzaldehyde]
rise in body weight following surgery [3]: not affected | sensorimotor recovery (forelimb placing, hindlimb placing, body swing tests) ([3]; up to Day 21, versus vehicle, p<0.001 two-way repeated-measures ANOVA): clear and significant augmentation of sensorimotor recovery | cell survival in the absence of the virus (HAP1 cells): no effect on cell survival | cell survival of HAP1 cells infected with human coronavirus 229E (human coronavirus 229E): increases cell survival | shift of the TSA melting curve / stability of the complex [4]: increased stability of the complex | relative phosphorylation of FGFR1 (FGFR1): augmented the effects of FGF-2

CCN(CC)c1ccc(/C=N/Nc2ccccc2)cc1 [Compound 15oc]
ΔTm at 2 µM ([1]; 2 μM compound): 4.3 °C | ΔTm at 2 µM ([2]; 2 μM compound): -2.4 °C

CCN(CC)c1ccc(/C=N/Nc2ccc(C#N)cc2)cc1 [Compound 15od, (E)-4-(2-(4-(diethylamino)benzylidene)hydrazineyl)benzonitrile]
ΔTm at 10 µM ([1]; 10 μM compound, read-out: ΔTm (° C.) −FGFR1): 0 °C | ΔTm at 10 µM ([2]; 10 μM compound, read-out: ΔTm (° C.) −FGF2): -1 °C

CCN(CC)c1ccc(C(C)=O)cc1 [Compound 16]
ΔTm at 25 µM ([1]; read-out: ΔTm (° C.) −FGFR1): 0.2 °C | ΔTm at 25 µM ([2]; read-out: ΔTm (° C.) −FGF2): 0 °C

CCN(CC)c1ccc(C(=O)O)cc1 [Compound 17]
ΔTm at 100 µM ([1]; 100 μM compound, read-out: ΔTm (° C.) −FGFR1): 2.5 °C | ΔTm at 100 µM ([2]; 100 μM compound, read-out: ΔTm (° C.) −FGF2): 0 °C

(4-(diethylamino)phenyl)(3-(trifluoromethoxy)phenyl)methanone [Compound 9om]
ΔTm (° C.) −FGFR1 ([1]; 100 μM compound): +1.2 °C | ΔTm (° C.) −FGF2 ([2]; 100 μM compound): +1.8 °C

(4-(diethylamino)phenyl)(3-(trifluoromethyl)phenyl)methanone [Compound 9ob]
ΔTm (° C.) −FGFR1 ([1]; 50 μM compound): +1.2 °C | ΔTm (° C.) −FGF2 ([2]; 50 μM compound): +1.5 °C

(4-(diethylamino)phenyl)(3-methoxyphenyl)methanone [Compound 9oc]
ΔTm (° C.) −FGFR1 ([1]; 2 μM compound): +9.5 °C | ΔTm (° C.) −FGF2 ([2]; 2 μM compound): −5.6 °C
